Measurements taken from patent US9833447B2, “5-HT4 receptor agonist for gastroparesis” (RAQUALIA PHARMA INC., priority 2014, dated 2017).
Entries after “also recorded” stand apart in the source; their conditions may differ.

Columns and labels:
[1] = tested on: clonidine-induced gastroparesis model in dogs; assay: Gastric emptying rates in conscious dogs, clonidine-induced gastroparesis model (acetaminophen method); assay type: in vivo, beagle dogs; conditions: clonidine 0.01 mg/kg s.c.
Method: Measurement of Gastric Emptying Rates in Conscious Dogs
All dogs are purchased from Kitayama Labes Co., Ltd. (Oriental Yeast Co., Ltd.). The animals are acclimatized to the laboratory conditions during experiments.
Dogs are fasted overnight, and then they are fed the test meal (10 mL/kg), which is ingested within 3 minutes. Blood samples are obtained at 0, 15, 30, 45, 60, 75, and 90 minutes after test meal administration. To provide a model of gastroparesis, 0.01 mg/kg of clonidine (alpha2 adrenergic agonist, Wako Pure Chemical Industries, Ltd., Osaka, Japan) is injected subcutaneously 30 minutes before test meal administration. […] Plasma is separated from the blood by centrifugation at 3,000 g for 5 min at 4° C. (himac CF15D, Hitachi Koki Co., Ltd., Tokyo, Japan). The plasma acetaminophen concentration is measured by LC-mass spectrometry.
Aliquots of dog plasma (50 microL) and 50 microL of internal standard (IS)* solution are mixed and vortexed well, and then they are diluted to a final volume of 750 microL with 50 mM ammonium acetate. As IS, [D4]4-acetamidophenol is used. Following conditioning of the solid phase extraction (SPE) 96 well plate (OASIS HLB, 10 mg/well, 30 microm, Waters Corporation, Milford, Mass., USA) with 700 microL methanol and 700 microL water in sequence, 750 microL of the plasma samples are transferred to the SPE plate for extraction. The SPE plate is then washed with 700 microL of 5% methanol. Samples are eluted twice off the SPE plate into a clean 96 deep well plate by addition of 250 microL of methanol. The eluent is then evaporated to dryness under 40° C. gentle stream of nitrogen, and reconstituted in 100 microL of acetonitrile/10 mM ammonium acetate (1/9, v/v). The samples are injected into HPLC column, and then the effluent from HPLC column is directly introduced into the turboionspray ion source, which is operated at the following conditions: * 300 ng/mL [D4]4-acetamidophenol: 10% methanol solution.

[2] = tested on: healthy male human subjects; assay: Gastric emptying rates in healthy male human subjects (13C-breath test, BreathID); assay type: in vivo
Method: Measurement of Gastric Emptying Rates in Human Study Population
Healthy male subjects, who aged between 18 and 55 years old and have a normal gastric emptying (GE) rate, are screened and enrolled into the study.
Subjects are given single oral doses of Compound A at 0.6 and 3 microg. Subjects swallowed dosing solution (20 mL) of appropriate Compound A concentrations. The dosing bottle is rinsed with 20 mL of water, and this rinse is swallowed by the subjects. The subjects then swallowed 200 mL of room temperature water, resulting in a total fluid intake at dosing of 240 mL.
GE is monitored with ^13C-breath test using the BreathiD system (Exalenz Bioscience Inc., Modin, Israel), which enables to continuously analyze the subject's breath for exhaled CO2 via a nasal cannula using molecular correlation spectrometry at the bedside. […] GE rate of solids is evaluated over the 4 hours period following ingestion of a standardized solid test meal, which are comprised of 2 slices of bread, 1 egg and 150 mL water including an egg yolk that have been mixed with 100 mg ^13C-octanoic acid (total calorific intake of 200-300 kcal). […] The parameters for GE of gastric half emptying time (GET1/2), lag phase (Tlag), gastric emptying coefficient (GEC) and gastric emptying area under the effect curve (AUEC) are automatically calculated.

[3] = tested on: patients with gastroparesis; assay: Gastric emptying rates in patients with gastroparesis (SmartPill); assay type: in vivo, human
Method: Measurement of Gastric Emptying Rates in Patients with Gastroparesis Clinical studies in patients with gastroparesis are conducted. Effect of Compound A on gastric emptying time (GET) is confirmed with SmartPill (Registered Trademark, Given Imaging Ltd.). SmartPill is an ingestible capsule that measures pressure, pH and temperature as it travels through the gastrointestinal (GI) tract to assess GI motility. The SmartPill motility monitoring test can be performed at a clinic or physician's office to evaluate motility disorders like gastroparesis (a condition in which the contents of the stomach empty too slowly) and chronic constipation. An improved gastric emptying time and colonic transit time are observed in the clinical studies.

## Clc1cccc(Cl)c1N=C1NCCN1 [clonidine, reference compound]
[1]; gastroparesis model induction
  Plasma APAP concentration at 60 min after meal administration: significantly decreased

## O=C(O)C1(CN2CCC(COc3noc4cccc(OCC(F)(F)F)c34)CC2)CCOCC1 [Compound A, 4-{[4-({[4-(2,2,2-trifluoroethoxy)-1,2-benzisoxazol-3-yl]-oxy}methyl)piperidin-1-yl]methyl}tetrahydro-2H-pyran-4-carboxylic acid]
[2]; even at supratherapeutic doses, human healthy subjects
  Severe Adverse Events and undesirable adverse events including QT/QTc prolongation: No Severe Adverse Events (SAEs) and undesirable adverse events
[2]; single oral doses 0.6 and 3 microg, healthy male human subjects
  Absolute change from baseline in gastric half emptying time (GET1/2): clearly observed; also recorded: improved
[3]
  Colonic transit time: improved
  Gastric emptying time (GET): improved
[1]; Compound A 0.3 microg/kg p.o.
  Effect on delayed gastric emptying induced by clonidine (plasma acetaminophen): significantly restored delayed gastric emptying induced by clonidine (0.01 mg/kg) to the normal levels; also recorded: equivalent to that of cisapride (1 mg/kg, p.o.)

## COc1cc(N)c(Cl)cc1C(=O)NC1CCN(CCCOc2ccc(F)cc2)CC1OC (stereo not shown) [Cisapride, cisapride, reference compound]
[1]; cisapride 1, 3 mg/kg p.o.
  Effect on delayed gastric emptying induced by clonidine (plasma acetaminophen): reversed delayed gastric emptying
